Measurements from patent US20130143872A1, “INJECTABLE FORMULATION OF A REVERSE TRANSCRIPTASE INHIBITOR FOR THE TREATMENT CANCER” (priority 2010, published 2013).
Values after ≈ are worked out from the molar mass of the structure shown.

Tests used:
[1] = cited from earlier work
[2] = Recrystallisation of nevirapine from water-ethanol co-solvent systems: crystal form and crystal habit; type: physicochemical
[3] = EtOH:H2O 90:0 ml, water content 0 % v/v
[4] = EtOH:H2O 90:4.7 ml, water content 5 % v/v
[5] = EtOH:H2O 90:22.5 ml, water content 20 % v/v
[6] = EtOH:H2O 90:38.6 ml, water content 30 % v/v
[7] = EtOH:H2O 90:60 ml, water content 40 % v/v
[8] = EtOH:H2O 90:90 ml, water content 50 % v/v
[9] = EtOH:H2O 90:135 ml, water content 60 % v/v
[10] = EtOH:H2O 90:210 ml, water content 70 % v/v
[11] = EtOH:H2O 90:360 ml, water content 80 % v/v

SMILES	solubility in water [1]	Crystal Habit ([2]; EtOH:H2O 90:0 ml (so in the source), water content 10 % v/v)	Crystal Habit [2, 3]	Nevirapine Form Obtained [2, 3]	Crystal Habit [2, 4]	Nevirapine Form Obtained [2, 4]	Crystal Habit [2, 5]	Nevirapine Form Obtained [2, 5]	Crystal Habit [2, 6]	Nevirapine Form Obtained [2, 6]	Crystal Habit [2, 7]	Nevirapine Form Obtained [2, 7]	Crystal Habit [2, 8]	Nevirapine Form Obtained [2, 8]	Crystal Habit [2, 9]	Nevirapine Form Obtained [2, 9]	Crystal Habit [2, 10]	Nevirapine Form Obtained [2, 10]	Crystal Habit [2, 11]	Nevirapine Form Obtained [2, 11]
Nc1ncnc2c1ncn2CCOCP(=O)(O)O [Adefonir]	400 µg/mL (≈ 1460 µM)																			
Cc1ccnc2c1NC(=O)c1cccnc1N2C1CC1 [nevirapine]		Very small tabular	Tabular crystals	Hemi-Ethanolate	Smaller tabular	Hemi-Ethanolate	Disorganized	Hemi-Hydrate	Disorganized	Hemi-Hydrate	Columnar clusters	Hemi-Hydrate	Platy clusters	Hemi-Hydrate	Platy crystals	Hemi-Hydrate	Platy crystals	Hemi-Hydrate	Very small bladed	Anhydrous
